Assay results reported in PubChem BioAssay AID256 (DTP/NCI, 2004).
Values joined by “and” are separate entries in the source; they are usually repeats but may differ in a detail not shown here. Equal values may be shown once. Inconclusive results and toxic doses are left out. How the source made its calls: active means survival T/C of 150% or more; inactive means T/C below 125% in these data.

Tested on: CD2F1 mice, L1210 leukemia ip, survival T/C
Experiment: NCI In Vivo Anticancer Drug Screen. Data for tumor model L1210 Leukemia (intraperitoneal) in CD2F1 (CDF1) mice
Settings: endpoint: mean survival time, higher = longer survival
Summary of the method: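 Tumor-bearing mice (transplanted tumor) were split into treated and vehicle control groups, and the measured endpoint of each treated group was divided by that of its vehicle controls.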

[1] = dose: 50.0 mg/kg/injection, schedule: Q01DX009 (ip), vehicle: saline with Tween-80
[2] = dose: 100.0 mg/kg/injection, schedule: Q01DX001 (ip), vehicle: other
[3] = dose: 100.0 mg/kg/injection, schedule: Q01DX009 (ip), vehicle: saline with Tween-80
[4] = dose: 200.0 mg/kg/injection, schedule: Q01DX001 (ip), vehicle: other
[5] = dose: 200.0 mg/kg/injection, schedule: Q01DX009 (ip), vehicle: saline with Tween-80
[6] = dose: 400.0 mg/kg/injection, schedule: Q01DX001 (ip), vehicle: other
[7] = dose: 25.0 mg/kg/injection, schedule: Q01DX009 (ip), vehicle: saline
[8] = dose: 50.0 mg/kg/injection, schedule: Q01DX009 (ip), vehicle: saline
[9] = dose: 100.0 mg/kg/injection, schedule: Q04DX003 (ip), vehicle: saline with Tween-80
[10] = dose: 200.0 mg/kg/injection, schedule: Q04DX003 (ip), vehicle: saline with Tween-80
[11] = dose: 400.0 mg/kg/injection, schedule: Q04DX003 (ip), vehicle: saline with Tween-80
[12] = dose: 12.5 mg/kg/injection, schedule: Q01DX009 (ip), vehicle: saline with Tween-80
[13] = dose: 25.0 mg/kg/injection, schedule: Q01DX009 (ip), vehicle: saline with Tween-80
[14] = dose: 100.0 mg/kg/injection, schedule: Q01DX009 (ip), vehicle: Klucel (hydroxypropylcellulose) (HPC)
[15] = dose: 200.0 mg/kg/injection, schedule: Q01DX009 (ip), vehicle: Klucel (hydroxypropylcellulose) (HPC)
[16] = dose: 400.0 mg/kg/injection, schedule: Q01DX009 (ip), vehicle: Klucel (hydroxypropylcellulose) (HPC)

Measured: T/C

CCOC(=O)n1cnc2ncnc(SC)c21
inactive: dose: 50.0 mg/kg/injection, schedule: Q01DX001 (ip), vehicle: other 95 % of control | dose: 50.0 mg/kg/injection, schedule: Q01DX009 (ip), vehicle: other 102 % of control | [1] 109 % of control | [2] 106 % of control | dose: 100.0 mg/kg/injection, schedule: Q01DX009 (ip), vehicle: other 102 % of control | [3] 101 % of control | [4] 102 % of control | dose: 200.0 mg/kg/injection, schedule: Q01DX009 (ip), vehicle: other 123 % of control | [5] 91 % of control | [6] 108 % of control | dose: 400.0 mg/kg/injection, schedule: Q01DX009 (ip), vehicle: other 121 % of control

CCCCCCCCCCCCCCC[N+]1(CC)CCCCC1
inactive: dose: 0.09 mg/kg/injection, schedule: Q01DX009 (ip), vehicle: saline 102 % of control | dose: 0.19 mg/kg/injection, schedule: Q01DX009 (ip), vehicle: saline 102 % of control | dose: 0.39 mg/kg/injection, schedule: Q01DX009 (ip), vehicle: saline 115 % of control | dose: 0.78 mg/kg/injection, schedule: Q01DX009 (ip), vehicle: saline 103 % of control

CC(C)(C)c1nc2ccccc2p1-c1ccccc1 (stereo not drawn)
inactive: [2] 98 % of control | [4] 91 % of control | [6] 95 % of control

COc1ccc2c(C)cc(C)nc2n1
inactive: dose: 75.0 mg/kg/injection, schedule: Q01DX001 (ip), vehicle: other 95 % of control | dose: 150.0 mg/kg/injection, schedule: Q01DX001 (ip), vehicle: other 104 % of control | dose: 300.0 mg/kg/injection, schedule: Q01DX001 (ip), vehicle: other 104 % of control

Cc1ccc(S(=O)(=O)NCl)cc1
inactive: [7] 89 % of control | [8] 94 % of control

CCOC(=O)C(C(C)=O)C(C(C)=O)C(=O)OCC (stereo not drawn)
inactive: dose: 75.0 mg/kg/injection, schedule: Q01DX009 (ip), vehicle: saline with Tween-80 97 % of control | [9] 98 % of control | dose: 150.0 mg/kg/injection, schedule: Q01DX009 (ip), vehicle: saline with Tween-80 97 % of control | [10] 95 % of control | dose: 300.0 mg/kg/injection, schedule: Q01DX009 (ip), vehicle: saline with Tween-80 97 % of control | [11] 106 % of control

CCOC(=O)C(C(=O)OCC)C1CCS(=O)(=O)C1 (stereo not drawn)
inactive: [9] 95 % of control | [10] 97 % of control | [11] 95 % of control

CSC(=S)N(C)/N=C/c1ccccn1
inactive: [3] 98 % of control | [5] 96 % of control

CCc1ccc(C2=C(O)C(=O)C(c3ccc(CC)cc3)=C(O)C2=O)cc1
inactive: dose: 1.56 mg/kg/injection, schedule: Q01DX001 (ip), vehicle: Klucel (hydroxypropylcellulose) (HPC) 97 % of control | dose: 3.12 mg/kg/injection, schedule: Q01DX009 (ip), vehicle: saline with Tween-80 97 % of control | dose: 3.13 mg/kg/injection, schedule: Q01DX001 (ip), vehicle: Klucel (hydroxypropylcellulose) (HPC) 96 % of control | dose: 6.25 mg/kg/injection, schedule: Q01DX001 (ip), vehicle: Klucel (hydroxypropylcellulose) (HPC) 96 % of control | dose: 6.25 mg/kg/injection, schedule: Q01DX009 (ip), vehicle: saline with Tween-80 89 % of control and 109 % of control | [12] 104 % of control | dose: 25.0 mg/kg/injection, schedule: Q01DX001 (ip), vehicle: Klucel (hydroxypropylcellulose) (HPC) 120 % of control | [13] 106 % of control and 111 % of control | [1] 119 % of control

COC(=O)C(CCl)NC(N)=O (stereo not drawn)
inactive: dose: 100.0 mg/kg/injection, schedule: Q01DX001 (ip), vehicle: saline 104 % of control | dose: 200.0 mg/kg/injection, schedule: Q01DX001 (ip), vehicle: saline 101 % of control | dose: 400.0 mg/kg/injection, schedule: Q01DX001 (ip), vehicle: saline 104 % of control

CCn1cnc(-c2ccccc2)c1-c1ccccc1
inactive: [13] 110 % of control | [1] 107 % of control | [3] 98 % of control | [9] 101 % of control

O=C(N/N=C\c1cc(Cl)ccc1[N+](=O)[O-])c1ccccc1
inactive: [14] 100 % of control | [15] 91 % of control | [16] 94 % of control

CCCCC(CC)COCC1CO1 (stereo not drawn)
inactive: dose: 50.0 mg/kg/injection, schedule: Q01DX009 (ip), vehicle: Klucel (hydroxypropylcellulose) (HPC) 102 % of control | [14] 96 % of control | [15] 100 % of control

ClC(Cl)(Cl)C1=NCc2nnn(Cc3ccccc3)c2N1
inactive: [12] 100 % of control | [13] 92 % of control | [1] 105 % of control | [3] 100 % of control | [5] 107 % of control | dose: 400.0 mg/kg/injection, schedule: Q01DX009 (ip), vehicle: saline with Tween-80 94 % of control

CC1(C)N=C(N)N=C(N)N1c1ccc(OCC(=O)N2CCOCC2)c(Cl)c1
inactive: dose: 6.25 mg/kg/injection, schedule: Q01DX009 (ip), vehicle: saline 98 % of control | dose: 12.5 mg/kg/injection, schedule: Q01DX009 (ip), vehicle: saline 97 % of control | [7] 92 % of control | [8] 98 % of control | dose: 100.0 mg/kg/injection, schedule: Q01DX009 (ip), vehicle: saline 98 % of control

CCCc1ccc(OC)cc1
inactive: [1] 103 % of control | [3] 97 % of control | [9] 98 % of control | [10] 94 % of control

COc1cc(Cl)ccc1NC(=O)Nc1cccc(Cl)c1
inactive: dose: 100.0 mg/kg/injection, schedule: Q04DX002 (ip), vehicle: saline with Tween-80 88 % of control | dose: 200.0 mg/kg/injection, schedule: Q04DX002 (ip), vehicle: saline with Tween-80 95 % of control | dose: 400.0 mg/kg/injection, schedule: Q04DX002 (ip), vehicle: saline with Tween-80 95 % of control

C/C(=N/NC(=O)c1ccccc1)c1ccccc1O
inactive: [14] 92 % of control | dose: 100.0 mg/kg/injection, schedule: Q04DX003 (ip), vehicle: Klucel (hydroxypropylcellulose) (HPC) 97 % of control | [15] 94 % of control | dose: 200.0 mg/kg/injection, schedule: Q04DX003 (ip), vehicle: Klucel (hydroxypropylcellulose) (HPC) 100 % of control | [16] 94 % of control | dose: 400.0 mg/kg/injection, schedule: Q04DX003 (ip), vehicle: Klucel (hydroxypropylcellulose) (HPC) 96 % of control

O=[N+]([O-])c1cc(P(=O)(O)O)c(Cl)cc1Cl
inactive: dose: 50.0 mg/kg/injection, schedule: Q04DX003 (ip), vehicle: saline 101 % of control | dose: 100.0 mg/kg/injection, schedule: Q04DX003 (ip), vehicle: saline 90 % of control | dose: 200.0 mg/kg/injection, schedule: Q04DX003 (ip), vehicle: saline 93 % of control
